# Data taken from PubChem BioAssay AID1549 (Sanford-Burnham Center for Chemical Genomics, 2009).
# The source made the active and inactive calls. How the calls were made is not given here.
# Target: Influenza A virus M2 proton channel (A/TW/4845/1999 H1N1)
# Assay: NMR binding screen, influenza A virus M2 proton channel, Kd (AID 1549)
# Settings: M2 protein
row,Compound,Kd
1,CC(=O)O[C@@H]1CC2C(C)(C)[C@H](O)C[C@H](O)[C@]2(C)C2CC[C@@]3(C)C(=CC(=O)O[C@H]3c3ccoc3)[C@@]21C (stereo not given in full),> 4 mM (inactive)
2,C=C(C)[C@H]1COc2cc3oc(=O)ccc3cc2O1,> 4 mM (inactive)
3,COc1ccc([C@H]2Oc3c(I)c(OC)cc(OC)c3C[C@@H]2O)cc1OC,> 4 mM (inactive)
4,CCn1nnc(NC(=O)c2cc3ccccc3o2)n1,> 4 mM (inactive)
5,Cc1cc(C)c(NC(=O)CN2CCC(O)CC2)c(C)c1,> 4 mM (inactive)
6,CSc1nc(O)cc(=O)[nH]1,> 4 mM (inactive)
7,CC(=O)c1c(C)n(O)c2ccc3nonc3c12,> 4 mM (inactive)
8,Nc1nc2ncc(=O)[nH]c2c(=O)[nH]1,> 4 mM (inactive)
9,CCOC(=O)c1c(C)n([O-])c2ccccc2[n+]1=O,> 4 mM (inactive)
10,O=C1Nc2ccccc2C1C1(O)C(=O)Nc2ccc(F)cc21 (stereo not given),> 4 mM (inactive)
11,CN1CCN(c2ccc(N)cc2)CC1,> 4 mM (inactive)
12,Cc1noc(C)c1C(=O)N1CCc2ccccc2C1,> 4 mM (inactive)
13,O=C(CNC(=O)c1cccs1)NC1=NCCS1,> 4 mM (inactive)
14,O=C(c1cc(-c2ccccc2)on1)N1CCCC1,> 4 mM (inactive)
15,Cc1ccc(C(=O)Nn2cnnc2)s1,> 4 mM (inactive)
16,CSc1ccccc1NC(=O)c1cnccn1,> 4 mM (inactive)
17,S=c1nc(C2CC2)[nH]c2ccccc12,> 4 mM (inactive)
18,COC(=O)C1=C(C)N(c2cccc(C(C)=O)c2)C(=O)C1,> 4 mM (inactive)
19,O=C(Nc1nncs1)c1c(F)cccc1F,> 4 mM (inactive)
20,NC(=O)CSc1nc2ccccc2o1,> 4 mM (inactive)
21,O=c1c[n+]([O-])c2ccccc2n1OCc1ccccn1,> 4 mM (inactive)
22,Cc1occc1C(=O)NCc1ccncc1,> 4 mM (inactive)
23,OCc1c[nH]c2ccccc12,> 4 mM (inactive)
24,Cc1nn2c(nc1=O)SCC(c1ccccc1)=N2,> 4 mM (inactive)

row,Compound,Kd
1,FC(F)(F)c1cc(-c2ccco2)nc(N2CCOCC2)n1,> 4 mM (inactive)
2,CCc1c(C)n([O-])c2c([n+]1=O)CCC2,> 4 mM (inactive)
3,O=C1c2ccccc2C(=O)N1OCc1ccccc1,> 4 mM (inactive)
4,Fc1cccc(Cl)c1CN1CCNCC1,> 4 mM (inactive)
5,CNC(Cc1c[nH]c2ccccc12)C(=O)O (stereo not given),> 4 mM (inactive)
6,CS(=O)(=O)N1CCN(C(=O)c2ccccc2)CC1,> 4 mM (inactive)
7,CC(C)c1c(O)ccc2c1CCC1C(C)(C)CCC[C@]21C (stereo not given in full),> 4 mM (inactive)
8,CC1(C)C(=O)[C@@H]2C[C@@]3(O)C4=CC(=O)O[C@@H](c5ccoc5)[C@]4(C)CCC3C(C)(C2=O)[C@H]1CC(=O)O (stereo not given in full),> 4 mM (inactive)
9,COC(=O)c1ccc2nccnc2c1,> 4 mM (inactive)
10,CC(=O)N1N=C(N)SC1c1cccnc1 (stereo not given),> 4 mM (inactive)
11,Cc1occc1C(=O)Nc1nnc(-c2ccncc2)s1,> 4 mM (inactive)
12,COc1cc2c(cc1OC)[C@@H]1C(=O)c3ccc(O)c(CC=C(C)C)c3O[C@@H]1CO2,> 4 mM (inactive)
13,CC(=O)c1ccc(NC(=S)N2CCC(O)CC2)cc1,> 4 mM (inactive)
14,COc1cc2c(cc1OC)C1(O)C(=O)c3ccc(O)c(C(=O)O)c3OC1CO2 (stereo not given),> 4 mM (inactive)
15,CC(=O)Nc1ccc(NC(C)=O)cc1,> 4 mM (inactive)
16,CC1CCC(N2CCN(c3ncccn3)CC2)CC1 (stereo not given),> 4 mM (inactive)
17,Cc1nn(CC(=O)Nc2ccccc2)c(=O)c2ccccc12,> 4 mM (inactive)
18,CNC(=O)Nc1cccc(C(F)(F)F)c1,> 4 mM (inactive)
19,CC(C)=CCc1c(O)cc(C)oc1=O,> 4 mM (inactive)
20,COc1cccc2c(=O)n(CC(N)=O)ccc12,> 4 mM (inactive)
21,O=C1CC(=O)N(c2ccccc2)C(=O)N1,> 4 mM (inactive)
22,Cc1cc(NC(=O)c2ccc3c(c2)OCO3)no1,> 4 mM (inactive)
23,COc1c(C)c2c(c(O)c1C/C=C(\C)CCC(=O)O)C(=O)OC2,> 4 mM (inactive)
24,O=C(Nc1ccccc1C(F)(F)F)c1cnccn1,> 4 mM (inactive)

row,Compound,Kd
1,Cc1c(O)c(O)cc2c1CC=C1[C@@]2(C)CC[C@@]2(C)C3C[C@](C)(C(=O)O)CC[C@]3(C)CC[C@]12C (stereo not given in full),> 4 mM (inactive)
2,COC(=O)CSc1nnc(-c2ccc(C(=O)O)cc2)o1,> 4 mM (inactive)
3,O=C(Nc1cccnc1)N1CCOCC1,> 4 mM (inactive)
4,O=c1[nH]c(O)c(C=NCc2cccs2)c(=O)[nH]1,> 4 mM (inactive)
5,CSc1ccccc1NC(=O)c1ccc(C)o1,> 4 mM (inactive)
6,O=C(Nc1ccccc1)NC1CCS(=O)(=O)C1 (stereo not given),> 4 mM (inactive)
7,O=C(/C=C(\O)c1ccccc1)c1ccccc1O,> 4 mM (inactive)
8,Nc1nc(-c2ccc(O)cc2)cs1,> 4 mM (inactive)
9,NCC1CN(Cc2ccccc2)CCO1 (stereo not given),> 4 mM (inactive)
10,O=C(CSc1ncnc2ccccc12)NCCCO,> 4 mM (inactive)
11,COc1cc2nc[nH]c(=O)c2cc1OC,> 4 mM (inactive)
12,COCc1cc(=O)oc2cc(N)ccc12,> 4 mM (inactive)
13,Cc1ccc(N2NC(=O)CC2=O)cc1C,> 4 mM (inactive)
14,O=C(O)/C=C(\CC(=O)O)C(=O)O,> 4 mM (inactive)
15,Cc1ccccc1NC(=O)c1ocnc1C,> 4 mM (inactive)
16,CCc1cc(=O)[nH]c(SCC(=O)NCCOC)n1,> 4 mM (inactive)
17,Cc1nc(-c2ccc(C(=O)O)s2)cs1,> 4 mM (inactive)
18,Cc1cc(=O)[nH]c(N2CCCCC2)n1,> 4 mM (inactive)
19,C=C[C@H]1CN2CC[C@H]1C[C@H]2[C@H](O)c1ccnc2ccccc12,> 4 mM (inactive)
20,O=C(O)CCn1c(=O)oc2ccccc21,> 4 mM (inactive)
21,CC(=O)c1cc(C)ccc1O,> 4 mM (inactive)
22,Cc1cc(C(=O)NC2=NCCS2)cs1,> 4 mM (inactive)
23,COc1c(O)cc2c(c1O)[C@H]1O[C@H](CO)[C@@H](O)[C@H](O)[C@@H]1OC2=O,> 4 mM (inactive)
24,O=C(c1ccccc1)N1CCN(c2ccccc2F)CC1,> 4 mM (inactive)

row,Compound,Kd
1,Cn1nc(C(C)(C)C)cc1N,> 4 mM (inactive)
2,CC(=O)c1c(C)n([O-])c2ccccc2[n+]1=O,> 4 mM (inactive)
3,Cc1oc2nc3c(c(=O)[nH]c(=O)n3C)n2c1C,> 4 mM (inactive)
4,O=C1CS/C(=N/N=C/c2cccs2)N1,> 4 mM (inactive)
5,NCc1csc(-c2ccccc2)n1,> 4 mM (inactive)
6,CC(=O)Nc1ccc(-c2nc(C)c(C(C)=O)n2O)cc1,> 4 mM (inactive)
7,CCc1c(C(=O)N2CCOCC2)csc1C,> 4 mM (inactive)
8,NC(=O)CC1Nc2cccc3cccc(c23)NC1=O (stereo not given),> 4 mM (inactive)
9,Cc1c(C(=O)Nc2ccccc2)sc(N)c1C(N)=O,> 4 mM (inactive)
10,COc1ccc(S(N)(=O)=O)cc1,> 4 mM (inactive)
11,Cc1nc2ccc(NC(=O)N3CCOCC3)cc2s1,> 4 mM (inactive)
12,COc1ccc(Cl)cc1-c1nc(-c2ccncc2)no1,> 4 mM (inactive)
13,COc1cc2occc2c2oc(=O)ccc12,> 4 mM (inactive)
14,OCc1ccc(-c2ccccn2)s1,> 4 mM (inactive)
15,COc1ccc(-c2oc3ccccc3c(=O)c2O)cc1OC,> 4 mM (inactive)
16,OCC1CCCN2CCCCC12 (stereo not given),> 4 mM (inactive)
17,CC(=O)NC(c1ccccc1)c1cccnc1 (stereo not given),> 4 mM (inactive)
18,Cc1scc(C(=O)Nc2ccon2)c1-c1ccccc1,> 4 mM (inactive)
19,CC[C@@H]1[C@@H](O)N2C3C[C@H]1C1C(O)[C@]4(C[C@@H]12)c1ccccc1N(C)[C@@H]34 (stereo not given in full),> 4 mM (inactive)
20,COc1cc([C@@H]2c3cc4c(cc3[C@H](O)[C@H]3COC(=O)[C@H]23)OCO4)cc(OC)c1OC,> 4 mM (inactive)
21,CN1C(=O)CC(=O)N(C)c2ccccc21,> 4 mM (inactive)
22,Cc1onc(-c2ccccc2)c1C(=O)Nc1ccncc1,> 4 mM (inactive)
23,CCN1CCc2c(sc(N)c2C#N)C1,> 4 mM (inactive)
24,C=C1C2CC[C@@]3(C)[C@H](c4ccoc4)OC(=O)C[C@]13O[C@H]1CC(=O)C(C)(C)[C@H](C(O)C(=O)OC)[C@@]21C (stereo not given in full),> 4 mM (inactive)

row,Compound,Kd
1,Cc1cc(NC(=O)CCCn2cnc([N+](=O)[O-])n2)no1,> 4 mM (inactive)
2,O=C1NC(=O)/C(=C\c2ccco2)S1,> 4 mM (inactive)
3,Cn1c(O)c(/C=C2\C=CC=N2)c(=O)[nH]c1=O,> 4 mM (inactive)
4,O=c1[nH]oc2ccccc12,> 4 mM (inactive)
5,O=C(Nc1ccc2ccccc2c1)c1cnccn1,> 4 mM (inactive)
6,CC(C(N)=O)N1C(=O)c2ccccc2C1=O (stereo not given),> 4 mM (inactive)
7,CCN1CCn2c1nc(N1CCOCC1)nc2=O,> 4 mM (inactive)
8,CN(C)N1C(=O)c2ccccc2C1=O,> 4 mM (inactive)
9,O=S1(=O)CCC(NC(=S)N2CCOCC2)C1 (stereo not given),> 4 mM (inactive)
10,C[C@]12CCC3C(CC[C@H]4C[C@@H](O)CC[C@]34C)C1CCC2=O (stereo not given in full),> 4 mM (inactive)
11,c1csc(-c2nn[nH]n2)c1,> 4 mM (inactive)
12,Nc1nc2c3ccccc3nc(Cc3ccccc3)n2n1,> 4 mM (inactive)
13,Cc1cc(C)n(CCC(=O)O)n1,> 4 mM (inactive)
14,O=C(c1ccccc1)N1CCOCC1,> 4 mM (inactive)
15,NC(=O)CSc1nnnn1-c1ccccc1,> 4 mM (inactive)
16,Cc1cc(NC(=O)c2ccccc2C(=O)O)no1,> 4 mM (inactive)
17,O=C(O)CCN1CCc2ccccc2C1c1ccncc1 (stereo not given),> 4 mM (inactive)
18,CCn1nnc(NC(=O)c2ccccc2Br)n1,> 4 mM (inactive)
19,Cc1cc(N)no1,> 4 mM (inactive)
20,Nc1nnc(SCc2cccnc2)s1,> 4 mM (inactive)
21,Cn1ccnc1C(O)c1ccccc1 (stereo not given),> 4 mM (inactive)
22,Nc1nc2ccc(C(=O)O)cc2s1,> 4 mM (inactive)
23,Nc1ccc(NC(=O)c2ccco2)c(Cl)c1,> 4 mM (inactive)
24,CC(CCC(=O)O)[C@H]1CCC2C3C(C[C@H](O)[C@@]21C)[C@@]1(C)CC[C@@H](O)C[C@H]1C[C@H]3O (stereo not given in full),> 4 mM (inactive)
